Data reported in ChEMBL document CHEMBL1127807 (J Med Chem, 1994).
pIC50: −log10 of the molar value.

Tests used:
[1] = target: Mu-type opioid receptor (Cavia porcellus, UniProt P97266); experiment: Tested for the binding affinity against the Mu opioid receptor in guinea pig brain using [3H]-DAMGO
[2] = target: Opioid receptors; mu/kappa/delta (Homo sapiens, UniProt P41145+P41143+P35372); experiment: Tested for the binding affinity against the opioid receptor in guinea pig brain using [3H]bremazocine; parameters: species or system Cavia porcellus; conditions: target entry is the homologue from another species
[3] = target: Kappa-type opioid receptor (Cavia porcellus, UniProt P41144); experiment: Tested for the binding affinity against the Kappa opioid receptor in guinea pig brain using [3H]U-69593
Sequence of Kappa-type opioid receptor (P41144 whole entry): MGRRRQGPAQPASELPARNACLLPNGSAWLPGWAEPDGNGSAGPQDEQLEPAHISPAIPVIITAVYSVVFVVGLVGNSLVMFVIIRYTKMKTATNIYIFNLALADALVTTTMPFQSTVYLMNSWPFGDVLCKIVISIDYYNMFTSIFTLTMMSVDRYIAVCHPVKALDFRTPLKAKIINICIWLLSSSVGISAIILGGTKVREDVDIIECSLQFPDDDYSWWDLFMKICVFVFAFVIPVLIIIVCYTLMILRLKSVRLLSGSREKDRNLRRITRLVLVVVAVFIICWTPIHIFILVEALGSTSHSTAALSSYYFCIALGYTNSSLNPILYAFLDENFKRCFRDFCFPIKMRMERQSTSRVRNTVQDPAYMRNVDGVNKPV

Sequence of Mu-type opioid receptor (P97266 whole entry): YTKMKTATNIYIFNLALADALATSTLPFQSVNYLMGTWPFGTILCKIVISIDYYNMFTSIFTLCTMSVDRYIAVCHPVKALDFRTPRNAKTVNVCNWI

**Q.** With `Oc1ccc2c3c1OC1[C@@H](OCc4c5ccccc5cc5ccccc45)CCC4(O)C(C2)N(CC2CC2)CCC314` (some centres not stated) as the compound, how does the pIC50 [1] read?
**A.** The pIC50 was 8.18.

**Q.** And the IC50 [2]?
**A.** The IC50 was 45 nM.

**Q.** And the pIC50 [3]?
**A.** The pIC50 was 7.47.

**Q.** Which results are given for `Oc1ccc2c3c1O[C@H]1[C@H](O)CC[C@@]4(O)[C@@H](C2)N(CC2CC2)CC[C@]314` (stereo in doubt; 7)?
**A.** pIC50 [1]: 9.30; pIC50 [3]: 8.74

**Q.** Which results are given for `Oc1ccc2c3c1OC1[C@H](OCc4cccc5ccccc45)CCC4(O)C(C2)N(CC2CC2)CCC314` (some centres not stated)?
**A.** pIC50 [1]: 8.51; IC50 [2]: 11 nM; pIC50 [3]: 8.21

**Q.** Which results are given for `Oc1ccc2c3c1OC1[C@@H](OCc4ccccc4)CCC4(O)C(C2)N(CC2CC2)CCC314` (some centres not stated)?
**A.** pIC50 [1]: 9.52; IC50 [2]: 1.5 nM; pIC50 [3]: 9.22

**Q.** What does the source list for `Oc1ccc2c3c1OC1[C@H](OCc4ccc(-c5ccccc5)cc4)CCC4(O)C(C2)N(CC2CC2)CCC314` (some centres not stated)?
**A.** pIC50 [1]: 9.15; IC50 [2]: 3.3 nM; pIC50 [3]: 8.82

**Q.** With `Oc1ccc2c3c1OC1[C@H](OCc4ccccc4)CCC4(O)C(C2)N(CC2CC2)CCC314` (some centres not stated) as the compound, how does the pIC50 [1] read?
**A.** The pIC50 was 8.62.

**Q.** What about the IC50 [2] of the same compound?
**A.** Its IC50 is 3.4 nM.

**Q.** What about the pIC50 [3] of the same compound?
**A.** Its pIC50 is 8.70.

**Q.** `O=C(COC1CCC2(O)C3Cc4ccc(O)c5c4C2(CCN3CC2CC2)C1O5)C1[C@H]2C[C@@H]3C[C@@H](C[C@H]1C3)C2` (some centres not stated) was tested. Which pIC50 [1] did it give?
**A.** Its pIC50 is 8.18.

**Q.** What about the IC50 [2] of the same compound?
**A.** Its IC50 is 13 nM.

**Q.** What about the pIC50 [3] of the same compound?
**A.** Its pIC50 is 8.48.

**Q.** `Oc1ccc2c3c1OC1[C@@H](OCc4cccc5ccccc45)CCC4(O)C(C2)N(CC2CC2)CCC314` (some centres not stated) was tested. Which pIC50 [1] did it give?
**A.** Its pIC50 is 9.00.

**Q.** What about the IC50 [2] of the same compound?
**A.** Its IC50 is 7.3 nM.

**Q.** What about the pIC50 [3] of the same compound?
**A.** Its pIC50 is 8.36.

**Q.** With `Oc1ccc2c3c1OC1[C@@H](OCc4ccc(-c5ccccc5)cc4)CCC4(O)C(C2)N(CC2CC2)CCC314` (some centres not stated) as the compound, how does the pIC50 [1] read?
**A.** The pIC50 was 8.00.

**Q.** What about the IC50 [2] of the same compound?
**A.** The IC50 was 28 nM.

**Q.** What about the pIC50 [3] of the same compound?
**A.** The pIC50 was 7.92.

**Q.** Which results are given for `Oc1ccc2c3c1OC1[C@H](OCc4c5ccccc5cc5ccccc45)CCC4(O)C(C2)N(CC2CC2)CCC314` (some centres not stated)?
**A.** pIC50 [1]: 7.80; IC50 [2]: 71 nM; pIC50 [3]: 7.57

**Q.** How did the pIC50 [1] turn out when `Oc1ccc2c3c1O[C@H]1[C@H](O)CC[C@@]4(O)[C@@H](C2)N(CC2CC2)CC[C@]314` (stereo in doubt; 6) was run?
**A.** The pIC50 was 8.96.

**Q.** And the pIC50 [3]?
**A.** The pIC50 was 8.59.

**Q.** Which results are given for `Oc1ccc2c3c1OC1[C@@H](OCc4ccc5ccccc5c4)CCC4(O)C(C2)N(CC2CC2)CCC314` (some centres not stated)?
**A.** pIC50 [1]: 8.92; IC50 [2]: 4.7 nM; pIC50 [3]: 8.85

**Q.** How did the pIC50 [1] turn out when `Oc1ccc2c3c1OC1[C@H](OCc4ccc5ccccc5c4)CCC4(O)C(C2)N(CC2CC2)CCC314` (some centres not stated) was run?
**A.** Its pIC50 is 8.77.

**Q.** And the IC50 [2]?
**A.** The IC50 was 5 nM.

**Q.** And the pIC50 [3]?
**A.** The pIC50 was 8.82.
